Measured values published in patent US4717767A, “7-amino-3-(pyrazinylmethyl) or (pyridazinylmethyl)-cephalosporins” (Toyama Chemical Co., Ltd., priority 1982, dated 1988).
≈ marks a conversion by molar mass, not a printed value. Counter-ions that a name gives are not always drawn. Like-named read-outs stand apart in the source and are kept apart here.

Columns and labels:
Type in all cases: cell-based
Cit. freundii N-7 = experiment: Antibacterial activity (MIC), Cit. freundii N-7; details: Citrobacter freundii
Text: (§1) The amount of the inoculated bacteria was 10^4 cells/plate (10^6 cells/ml).

Kl. pneumoniae Y-50 = experiment: Antibacterial activity (MIC), Kl. pneumoniae Y-50; details: Klebsiella pneumoniae, Y50; Heart Infusion agar, 37° C., 20 hours, 10^6 cells/ml
Text: as §1

Ser. marcescens IID620 = experiment: Antibacterial activity (MIC), Ser. marcescens IID620; details: Serratia marcescens
Text: as §1

Ser. marcescens W-134 = experiment: Antibacterial activity (MIC), Ser. marcescens W-134; details: Serratia marcescens
Text: as §1

E. coli TK-3 = experiment: Antibacterial activity (MIC), E. coli TK-3; details: Escherichia coli
Text: as §1

Pro. vulgaris GN76 = experiment: Antibacterial activity (MIC), Pro. vulgaris GN76; details: Proteus vulgaris, cephalosporinase-producing strain, Heart Infusion agar, 37° C., 20 hours, 10^6 cells/ml
Text: as §1

Pro. mirabilis T-111 = experiment: Antibacterial activity (MIC), Pro. mirabilis T-111; details: Proteus mirabilis
Text: as §1

E. coli NIHJ = experiment: Antibacterial activity (MIC), E. coli NIHJ; details: Escherichia coli; Heart Infusion agar, 37° C., 20 hours, 10^4 cells/plate (10^6 cells/ml)
Text: as §1

Pro. morganii T-216 = experiment: Antibacterial activity (MIC), Pro. morganii T-216; details: Morganella morganii, T216; Heart Infusion agar, 37° C., 20 hours, 10^6 cells/ml
Text: as §1

Kl. pneumoniae Y-4 = experiment: Antibacterial activity (MIC), Kl. pneumoniae Y-4; details: Klebsiella pneumoniae, Y4; penicillinase-producing strain; Heart Infusion agar, 37° C., 20 hours, 10^6 cells/ml
Text: as §1

Kl. pneumoniae Y-41 = experiment: Antibacterial activity (MIC), Kl. pneumoniae Y-41; details: Klebsiella pneumoniae, Y41; Heart Infusion agar, 37° C., 20 hours, 10^6 cells/ml
Text: as §1

Ps. aeruginosa GN918 = experiment: Antibacterial activity (MIC), Ps. aeruginosa GN918; details: Pseudomonas aeruginosa, cephalosporinase-producing strain, Heart Infusion agar, 37° C., 20 hours, 10^6 cells/ml
Text: as §1

[1] = TK3, penicillinase-producing strain, Heart Infusion agar, 37° C., 20 hours, 10^6 cells/ml, read-out: MIC
[2] = T111, Heart Infusion agar, 37° C., 20 hours, 10^6 cells/ml, read-out: MIC
[3] = N7, Heart Infusion agar, 37° C., 20 hours, 10^6 cells/ml, read-out: MIC
[4] = IID620, Heart Infusion agar, 37° C., 20 hours, 10^6 cells/ml, read-out: MIC
[5] = W134, Heart Infusion agar, 37° C., 20 hours, 10^6 cells/ml, read-out: MIC

Compound	MIC (Cit. freundii N-7; N7, 20 h)	MIC (Kl. pneumoniae Y-50)	MIC (Ser. marcescens IID620; IID620, 20 h)	MIC (Ser. marcescens W-134; W134, 20 h)	MIC (E. coli TK-3; [1])	MIC (Pro. vulgaris GN76)	MIC (Pro. mirabilis T-111; [2])	MIC (E. coli NIHJ)	MIC (Pro. morganii T-216)	MIC (Cit. freundii N-7; [3])	MIC (Ser. marcescens IID620; [4])	MIC (Ser. marcescens W-134; [5])	MIC (Pro. mirabilis T-111; T111, 20 h)	MIC (Kl. pneumoniae Y-4)	MIC (Kl. pneumoniae Y-41)	MIC (Ps. aeruginosa GN918)	MIC (E. coli TK-3; TK3, 20 h)
Nc1nc(/C(=N/OCC(=O)O)C(=O)NC2C(=O)N3C(C(=O)O)=C(Cn4[nH]c(=O)ccc4=O)CSC23)cs1 (stereo not drawn) [L, formic acid salt of 7-[2-(2-aminothiazol-4-yl)-2-(syn)-carboxymethoxyiminoacetamido]-3-{[1-(3,6-dioxo-1,2,3,6-tetrahydropyridazinyl)]methyl}-Δ^3-cephem-4-carboxylic acid]	3.13 µg/mL	0.78 µg/mL	1.56 µg/mL	≤ 0.1 µg/mL	0.78 µg/mL	≤ 0.1 µg/mL	≤ 0.1 µg/mL	≤ 0.1 µg/mL	≤ 0.1 µg/mL								
CO/N=C(\C(=O)NC1C(=O)N2C(C(=O)O)=C(Cn3nc(C)ccc3=O)CSC12)c1csc(N)n1 (stereo not drawn) [M, trifluoroacetic acid salt of 7-[2-(2aminothiazol-4-yl)-2-(syn)-methoxyiminoacetamido]-3-{[1-(3-methyl-6-oxo-1,6-dihydropyridazinyl)]methyl}-Δ^3-cephem-4-carboxylic acid]		0.2 µg/mL		0.78 µg/mL	0.2 µg/mL	0.2 µg/mL	0.2 µg/mL	≤ 0.1 µg/mL	0.2 µg/mL	0.78 µg/mL	0.2 µg/mL						
CO/N=C(\C(=O)NC1C(=O)N2C(C(=O)O)=C(Cn3ccn(C(C)C)c(=O)c3=O)CSC12)c1csc(N)n1 (stereo not drawn) [D, trifluoroacetic acid salt of 7-[2-(2-aminothiazol-4-yl)-(syn)-methoxyiminoacetamido]-3-{[1-(4-isopropyl-2,3-dioxo-1,2,3,4-tetrahydropyrazinyl)]methyl}-Δ^3-cephem-4-carboxylic acid]		≤ 0.1 µg/mL			≤ 0.1 µg/mL	0.39 µg/mL		≤ 0.1 µg/mL	≤ 0.1 µg/mL	1.56 µg/mL	≤ 0.1 µg/mL	≤ 0.1 µg/mL	0.2 µg/mL	0.39 µg/mL	≤ 0.1 µg/mL		
CN(C)n1ccn(CC2=C(C(=O)O)N3C(=O)C(NC(=O)/C(=N\OCC(=O)O)c4csc(N)n4)C3SC2)c(=O)c1=O (stereo not drawn) [I, trifluoroacetic acid salt of 7-[2-(2-aminothiazol-4-yl)-2-(syn)-carboxymethoxyiminoacetamido]-3-{[1-(4-dimethylamino-2,3-dioxo-1,2,3,4-tetrahydropyrazinyl)]methyl}-Δ^3-cephem-4-carboxylic acid]		0.2 µg/mL		≤ 0.1 µg/mL	≤ 0.1 µg/mL	≤ 0.1 µg/mL	≤ 0.1 µg/mL	≤ 0.1 µg/mL	≤ 0.1 µg/mL	1.56 µg/mL	≤ 0.1 µg/mL			0.39 µg/mL	0.2 µg/mL	12.5 µg/mL	
CO/N=C(\C(=O)NC1C(=O)N2C(C(=O)O)=C(Cn3ccn(N(C)C)c(=O)c3=O)CSC12)c1csc(N)n1 (stereo not drawn) [E, trifluoroacetic acid salt of 7-[2-(2-aminothiazol-4-yl)-2-(syn)-methoxyiminoacetamido]-3-{[1-(4-dimethylamino-2,3-dioxo-1,2,3,4-tetrahydropyrazinyl)]-methyl}-Δ^3-cephem-4-carboxylic acid]		≤ 0.1 µg/mL			≤ 0.1 µg/mL	1.56 µg/mL	≤ 0.1 µg/mL	≤ 0.1 µg/mL	≤ 0.1 µg/mL	0.78 µg/mL	≤ 0.1 µg/mL	≤ 0.1 µg/mL		≤ 0.1 µg/mL	≤ 0.1 µg/mL		
CCn1ccn(CC2=C(C(=O)O)N3C(=O)C(NC(=O)/C(=N\OC)c4csc(N)n4)C3SC2)c(=O)c1=O (stereo not drawn) [C, trifluoroacetic acid salt of 7-[2-(2-aminothiazol-4-yl)-2-(syn)-methoxyiminoacetamido]-3-{[1-(4-ethyl-2,3-dioxo-1,2,3,4-tetrahydropyrazinyl)]methyl}-Δ^3-cephem-4-carboxylic acid]		≤ 0.1 µg/mL			≤ 0.1 µg/mL	1.56 µg/mL	≤ 0.1 µg/mL	≤ 0.1 µg/mL	≤ 0.1 µg/mL	0.78 µg/mL	≤ 0.1 µg/mL	≤ 0.1 µg/mL		≤ 0.1 µg/mL	≤ 0.1 µg/mL	6.25 µg/mL	
CCn1ccn(CC2=C(C(=O)O)N3C(=O)C(NC(=O)/C(=N\OCC(=O)O)c4csc(N)n4)C3SC2)c(=O)c1=O (stereo not drawn) [H, trifluoroacetic acid salt of 7-[2-(2-aminothiazol-4-yl)-2-(syn)-carboxymethoxyiminoacetamido]-3-{[1-(4-ethyl-2,3-dioxo-1,2,3,4-tetrahydropyrazinyl)]methyl}-Δ^3-cephem-4-carboxylic acid]		0.2 µg/mL			≤ 0.1 µg/mL	≤ 0.1 µg/mL	≤ 0.1 µg/mL	≤ 0.1 µg/mL	≤ 0.1 µg/mL	1.56 µg/mL	≤ 0.1 µg/mL	≤ 0.1 µg/mL		0.2 µg/mL	≤ 0.1 µg/mL	6.25 µg/mL	
CO/N=C(\C(=O)NC1C(=O)N2C(C(=O)O)=C(Cn3ccncc3=O)CSC12)c1csc(N)n1 (stereo not drawn) [J, trifluoroacetic acid salt of 7-[2-(2-aminothiazol-4-yl)-2-(syn)-methoxyiminoacetamido]-3-{[1-(2-oxo-1,2-dihydropyrazinyl)]methyl}-Δ^3-cephem-4-carboxylic acid]		≤ 0.1 µg/mL	≤ 0.1 µg/mL	0.39 µg/mL	0.2 µg/mL	0.78 µg/mL	0.2 µg/mL	≤ 0.1 µg/mL	≤ 0.1 µg/mL	0.78 µg/mL							
Nc1nc(/C(=N/OCC(=O)O)C(=O)NC2C(=O)N3C(C(=O)O)=C(Cn4cc[nH]c(=O)c4=O)CSC23)cs1 (stereo not drawn) [F, 7-[2-(2-aminothiazol-4-yl)-2-(syn)-carboxymethoxyiminoacetamido]-3-{[1-(2,3-dioxo-1,2,3,4-tetrahydropyrazinyl)]methyl}-Δ^3-cephem-4-carboxylic acid]		≤ 0.1 µg/mL		≤ 0.1 µg/mL	≤ 0.1 µg/mL	≤ 0.1 µg/mL	≤ 0.1 µg/mL	≤ 0.1 µg/mL	≤ 0.1 µg/mL	0.78 µg/mL (≈ 1.41 µM)	≤ 0.1 µg/mL			0.2 µg/mL (≈ 0.363 µM)	0.39 µg/mL (≈ 0.707 µM)		
CO/N=C(\C(=O)NC1C(=O)N2C(C(=O)O)=C(Cn3[nH]c(=O)ccc3=O)CSC12)c1csc(N)n1 (stereo not drawn) [K, trifluoroacetic acid salt of 7-[2-(2-aminothiazol-4-yl)-2-(syn)-methoxyiminoacetamido]-3-{[1-(3,6-dioxo-1,2,3,6-tetrahydropyridazinyl)]methyl}-Δ^3-cephem-4-carboxylic acid]	0.78 µg/mL	≤ 0.1 µg/mL				≤ 0.1 µg/mL	≤ 0.1 µg/mL	≤ 0.1 µg/mL	≤ 0.1 µg/mL		≤ 0.1 µg/mL	≤ 0.1 µg/mL					0.2 µg/mL
Cc1ccc(=O)n(CC2=C(C(=O)O)N3C(=O)C(NC(=O)/C(=N\OCC(=O)O)c4csc(N)n4)C3SC2)n1 (centres unmarked) [N]	0.78 µg/mL (≈ 1.42 µM)	0.39 µg/mL (≈ 0.71 µM)			0.2 µg/mL (≈ 0.364 µM)	≤ 0.1 µg/mL	≤ 0.1 µg/mL	≤ 0.1 µg/mL	≤ 0.1 µg/mL		≤ 0.1 µg/mL	≤ 0.1 µg/mL					
Cn1ccn(CC2=C(C(=O)O)N3C(=O)C(NC(=O)/C(=N\OCC(=O)O)c4csc(N)n4)C3SC2)c(=O)c1=O (centres unmarked) [G]		0.2 µg/mL (≈ 0.354 µM)			0.2 µg/mL (≈ 0.354 µM)	≤ 0.1 µg/mL	≤ 0.1 µg/mL	≤ 0.1 µg/mL	≤ 0.1 µg/mL	1.56 µg/mL (≈ 2.76 µM)	≤ 0.1 µg/mL	≤ 0.1 µg/mL		0.2 µg/mL (≈ 0.354 µM)	≤ 0.1 µg/mL		
CO/N=C(\C(=O)NC1C(=O)N2C(C(=O)O)=C(Cn3cc[nH]c(=O)c3=O)CSC12)c1csc(N)n1 (stereo not drawn) [A, trifluoroacetic acid salt of 7-[2-(2-aminothiazol-4-yl)-2-(syn)-methoxyiminoacetamido]-3-{[1-(2,3-dioxo-1,2,3,4-tetrahydropyrazinyl)]methyl}-Δ^3-cephem-4-carboxylic acid]		≤ 0.1 µg/mL			≤ 0.1 µg/mL	≤ 0.1 µg/mL	≤ 0.1 µg/mL	≤ 0.1 µg/mL	≤ 0.1 µg/mL	0.39 µg/mL	≤ 0.1 µg/mL	≤ 0.1 µg/mL		≤ 0.1 µg/mL	≤ 0.1 µg/mL	12.5 µg/mL	
CO/N=C(\C(=O)NC1C(=O)N2C(C(=O)O)=C(Cn3ccn(C)c(=O)c3=O)CSC12)c1csc(N)n1 (stereo not drawn) [B, trifluoroacetic acid salt of 7-[2-(2-aminothiazol-4yl)-2-(syn)-methoxyiminoacetamido]-3-{[1-(4-methyl-2,3-dioxo-1,2,3,4-tetrahydropyrazinyl)]methyl}-Δ^3-cephem-4-carboxylic acid]		≤ 0.1 µg/mL			≤ 0.1 µg/mL	0.2 µg/mL	≤ 0.1 µg/mL	≤ 0.1 µg/mL	≤ 0.1 µg/mL	1.56 µg/mL	≤ 0.1 µg/mL	≤ 0.1 µg/mL		0.2 µg/mL	≤ 0.1 µg/mL	25 µg/mL	
